Results on three compounds are retold here after patent publication US20250032448A1, “COMPOUND FOR USE IN THE TREATMENT AND/OR PREVENTION OF PARASITIC MEDIATED DISEASES” (priority 2016, published 2025).

Values after ≈ are worked out from the molar mass of the structure shown. Where two headings read alike, the source gives them in different places.

Data set [1] deals with Plasmodium falciparum 3D7 (chloroquine-sensitive strain). The data set can be described thus: In vitro drug sensitivity assay (modified WHO microtest), schizont maturation. It is filed as cell-based. As to the method:
(§1) For malaria culture, venous blood (not more than 50 ml) was collected by venepuncture from healthy adult volunteers. Host leukocytes were removed using a CF11 column, and packed infected red blood cells were used for the in vitro drug sensitivity assay. Ethical approval for this study was obtained from the Institutional Review Board, National University of Singapore (IRB protocol reference: B-14-056).
(§2) Parasites were thawed and grown in leukocyte-depleted red blood cells at 2% haematocrit at 37° C. in controlled conditions (3% oxygen, 4% carbon dioxide and 93% nitrogen), in RPMI 1640 tissue culture medium supplemented with 50 μg/ml hypoxanthine, 25 mM 4-(2-hydroxyethyl) piperazine-1-ethanesulfonic acid (HEPES), 0.3 g/L L-glutamine, 11 mM glucose, 25 mM NaHCO3, 2.5 μg/ml gentamicin and 0.5% w/v Albumax II.
(§3) Parasites were synchronized using sorbitol treatment. Red blood cells were resuspended in 5% (w/v) D-sorbitol and incubated at 37° C. for 20 minutes, after which the erythrocytes were washed twice, resuspended in RPMI and returned to culture conditions. Thin smears were made before and after each experiment to determine parasitaemia and parasite stage.
(§4) Crude extracts or fractions were preliminarily screened at a single concentration. For preliminary screening of isolated compounds, the starting concentrations used were 11.36 μg/ml and 5.953 μg/ml. Duplicates were performed. […] Seven concentrations of serial dilutions (two-fold) of each extract were added in duplicate on the 96-well pre-dosed drug plates (Nunc, Singapore). […] Triplicates were performed for IC50 determination.
(§5) 200 μl of a 2% haematocrit blood medium mixture consisting of RPMI 1640, […] gentamicin sulphate, 25 mM PEPES, 11 mM glucose, 200 μM hypoxanthine, and 0.5% w/v Albumax II (Gibco, Singapore) was added to each well of plates pre-dosed with the extracts. The parasites were cultured continuously in vented culture flasks in a gas chamber at 37° C. with 5% CO2 until they reached mature stage.
(§6) Thick blood smears were made from each well and stained with 5% Giemsa solution for 15 mins, and examined microscopically. The average number of schizonts (defined as parasites with five or more chromatin dots visible under microscopy) remaining at the end of the 42-48 hour incubation period per 100 parasites in each well was determined by microscopy, and normalized to the control well. Ring stage parasites and gametocytes were not included in the count. The dose-response curves were analysed using nonlinear regression analysis, and the concentration which inhibited 50% growth (IC50) was derived using an inhibitory sigmoid Emax model (Le Nagard et al. 2011).

Another data set has as its system NL20 cells. The data set can be described thus: in vitro. As to the method:
(§7) Serial dilutions were performed using complete media (RPMI supplemented with 10% foetal bovine serum). The final concentration of DMSO for all test samples was not more than 0.4%.
(§8) Cytotoxicity was determined using the WST-1 assay (WST-1 cell proliferation reagent, Roche, Singapore). Exponentially growing NL20 cells were plated in 96-well plates at an optimized cell density of 3.5×10^4 cells/100 μl. The adherent cells were incubated overnight at 37° C. and 5% CO2 to allow attachment. After 48 h of treatment with test samples, the media were aspirated and replaced with 10% v/v WST-1 in complete media. The plates were incubated for 30 min. The absorbance in each well was quantitated at 440 nm against a reference wavelength of 650 nm using a microplate reader (EnSpire Multimode Plate Reader, PerkinElmer, USA).
(§9) Cell viability was expressed as a percentage of the vehicle control. […] Each reported value is the mean±SD from three independent experiments. The selectivity index (SI) was determined by taking the ratio of IC50 against P. falciparum and CC50 against NL20 cells.

The next data set has as its system uninfected host RBCs. In kind it is cell-based. To be noted: human, 1 h. As to the method:
The toxicity of anisolactone in uninfected host RBCs was evaluated using the haemolysis assay, according to a protocol described previously by Sarkar et al. (2016) with some modifications. Freshly obtained RBCs were washed thrice with PBS (pH 7.4). The haemolysis assay was performed at 2% hematocrit with two-fold serial dilutions from 0.1 mg/ml of test compounds in a final volume of 200 μl, followed by incubation at 37° C. for 1 h. 1% Triton-X (v/v) was used as a positive control. Non-specific haemolysis was corrected for by using untreated RBCs as negative control. After incubation, the plates were centrifuged at 2000 rpm for 5 min and the absorbance of the supernatant was measured at 540 nm using a spectrophotometric plate reader (Tecan Sunrise, Switzerland) to measure the amount of haemoglobin released upon RBC lysis. The percentage of haemolysis was calculated as follows: [(Optical density (OD)540 of sample−OD540 of PBS)/(OD540 of 1% Triton X-100−OD540 of PBS)]×100. The compounds were tested in triplicates. Ethics approval for this study was obtained from the Institutional Review Board, National University of Singapore (IRB protocol reference: B-14-056).

Data set [2] relates to Plasmodium falciparum Dd2 (chloroquine-resistant strain). Nature of the data set: In vitro drug sensitivity assay (modified WHO microtest), schizont maturation. In kind it is cell-based. As to the method: as §1, §2, §3, §4, §5, §6
The nature of a further data set: in vitro. The settings on record: human. Here is the method: as §7, §8, §9
The mark [3] stands for this setting: 3D7, read-out: IC50 (in μg/ml) against P. falciparum 3D7.
The mark [4] stands for this setting: 3D7, read-out: IC50 against P. falciparum 3D7 (Table 4).
Setting [5] is: 3D7, read-out: IC50 against P. falciparum 3D7 (molar value in brackets).
Setting [6] is: DD2, read-out: IC50 (in μg/ml) against P. falciparum Dd2.
Setting [7] is: DD2, read-out: IC50 against P. falciparum Dd2 (molar value in brackets).

Turning to `CC1=CC(C/C(C)=C/COc2c3ccoc3cc3oc(=O)ccc23)OC1=O` (centres unmarked) [Compound 1, anisolactone], the IC50 in data set [1] (3D7, as used for the selectivity index, read-out: IC50 against P. falciparum 3D7 (Table 4)) was found to be 7.5 µg/mL; in data set [1] (3D7, n = 3, 42-48 hour incubation, read-out: IC50 (in μg/ml) against P. falciparum 3D7) it was 7.5 µg/mL; in data set [1] (3D7, n=3, read-out: IC50 against P. falciparum 3D7 (molar value in brackets)), 20500 nM. For the same compound, in the data set on NL20 cells, the “cytotoxic effects on host cells (NL20)” value was “did not exhibit cytotoxic effects”. In the data set on uninfected host RBCs, the “% Haemolysis” value turned out to be 0.99 ± 0.28%.

In the case of `CCN(CC)CCCC(C)Nc1ccnc2cc(Cl)ccc12` (centres unmarked) [Chloroquine, chloroquine diphosphate], the IC50 came to 0.0128 ± 1.4e-05 µg/mL in data set [1] (setting [3]); 0.0128 µg/mL in data set [1] (setting [4]); 24.4 nM in data set [1] (setting [5]); 0.16 ± 0.04 µg/mL in data set [2] (setting [6]); 310 nM in data set [2] (setting [7]).

As to `C[C@H]1[C@H](OC(=O)CCC(=O)O)O[C@@H]2O[C@@]3(C)CC[C@H]4[C@H](C)CC[C@@H]1[C@@]24OO3` [Artesunate, artesunate], the IC50 in data set [1] (setting [3]) stood at 0.000693 ± 1.11e-08 µg/mL; in data set [1] (setting [4]), 0.000693 µg/mL; in data set [1] (setting [5]) it was 1.8 nM; in data set [2] (setting [6]), 0.00211 ± 6.8e-07 µg/mL; in data set [2] (setting [7]), 5.48 nM. This compound registered a CC50 at 48 h in “in vitro” of 5.63 ± 0.82 µg/mL (≈ 14.6 µM). The “SI (selectivity index)” value in the data set with NL20 cells (P. falciparum 3D7 IC50 versus NL20 CC50) was 8123.
